Results: US20260306428A1 (The Trustees of Indiana University, priority 2023, published 2026)

What was measured:
impacted chondrocytes = experiment: Chondrocyte viability by live/dead staining in impacted cartilage; type: cell-based, bovine; settings: for rescue of chondrocyte viability following AMD: AMPK activation (EX229 1 μM and 10 μM) or SIRT1 activation (SRT1720 1 μM and 5 μM); for prevention of impact-induced chondrocyte death: EX229 1 μM and 10 μM, SRT1720 1 μM and 5 μM
Procedure: Bovine cartilage was cultured with metformin following an impact from a drop tower device.
As a preliminary assessment, live/dead staining was evaluated in impacted bovine cartilage treated with specific pharmacological activators of AMPK and SIRT1 or left untreated with appropriate vehicle (DMSO).
One half of the explant was assessed for cell viability via live/dead staining, and the other half was stained with MitoTracker Green and TMRM to evaluate mitochondrial health.

[1] = oral, anti-diabetic treatment; cited from earlier work
[2] = system: mitochondria in chondrocytes; experiment: Mitochondrial function (TMRM / MitoTracker Green red:green ratio) in cartilage explants; type: cell-based, bovine
caspase 3/7 = experiment: Apoptosis via activated caspase 3/7 signalling (CellEvent) in sublethally impacted cartilage explants; type: cell-based, bovine; settings: sublethal impact, 24 hr post-impact
From the text: (§1) Bovine cartilage explants were impacted with sublethal force to evaluate the injury response in viable chondrocytes.
(§2) Apoptosis and Oxidative Stress: Cartilage was removed from subchondral bone and stained for apoptosis via activated caspase 3/7signalling (CellEvent, Invitrogen) or ROS (CellRox, Invitrogen) 24 hr post-impact, as shown in FIG. 1A and FIG. 1B, respectively.

SIRT1 = settings: role: activator; cited from earlier work
[3] = system: reactive oxygen species (ROS); experiment: Oxidative stress / ROS staining (CellRox) in sublethally impacted cartilage explants; type: cell-based, bovine; settings: sublethal impact, 24 hr post-impact, 10 mM
From the text: as §1, §2

AMPK = settings: role: activator; cited from earlier work
Complex I [4] = settings: role: inhibitor; cited from earlier work
Complex I [5] = settings: in vivo; cited from earlier work
[6] = cited from earlier work
[7] = impacted, EX229 1 μM and 10 μM (FIG. 4A), SRT1720 1 μM and 5 μM (FIG. 4B)

Question: Which “cell viability (live/dead staining)” value (impacted chondrocytes; drop tower impact, 24 hr post-impact, 10 mM) does the source give for `CN(C)C(=N)NC(=N)N.Cl` [metformin, 1,1-dimethylbiguanide hydrochloride] here?
Answer: improved cell viability

Question: And the “cell viability (live/dead staining)” value (impacted chondrocytes; drop tower impact, 24 hr post-impact, 50 mM)?
Answer: completely rescue impacted chondrocytes

Question: What about the “cell viability (live/dead staining), data not shown” value (impacted chondrocytes; impacted bovine cartilage, 125 mM, trends similar to mitochondrial function) of the same compound?
Answer: showed similar trends

Question: What about the side effects [1] of the same compound?
Answer: nausea, vomiting, diarrhoea, and stomach pain

Question: And the “mitochondrial dysfunction in impacted chondrocytes” value ([2]; impacted explants, 24 hours post-impact, 10 mM and 50 mM)?
Answer: rescues mitochondrial dysfunction in impacted chondrocytes in a dose-dependent manner

Question: What about the “mitochondrial function of impacted chondrocytes” value ([2]; impacted, 125 mM, vs untreated impacted chondrocytes) of the same compound?
Answer: not significantly different from that of untreated impacted chondrocytes

Question: What about the “mitochondrial function of non-impacted chondrocytes” value ([2]; non-impacted, 125 mM) of the same compound?
Answer: slightly declined

Question: What about the “apoptotic signalling (caspase 3/7)” value (caspase 3/7; 1 mM) of the same compound?
Answer: only partially reduced apoptotic signalling

Question: What about the “apoptosis (caspase 3/7 signalling)” value (caspase 3/7; 1 mM, 5 mM and 10 mM) of the same compound?
Answer: dose-dependent decrease

Question: What about the “apoptosis (caspase 3/7)” value (caspase 3/7; 10 mM) of the same compound?
Answer: completely suppressed apoptosis

Question: And the “activation of SIRT1” value (SIRT1)?
Answer: activates AMPK and SIRT1

Question: What about the “oxidative stress (ROS)” value [3] of the same compound?
Answer: full suppression of oxidative stress

Question: What about the “activation of AMPK” value (AMPK) of the same compound?
Answer: activates AMPK

Question: And the “inhibition of Complex I” value (Complex I [4])?
Answer: inhibiting Complex I

Question: For `CCC1(CCC(C)C)C(=O)NC(=O)NC1=O` [amobarbital], which “block of mitochondrial electron transport at complex I” value (Complex I [5]) is on record?
Answer: blocks mitochondrial electron transport at complex I to prevent chondrocyte dysfunction and apoptosis

Question: Which results are given for `Cc1ccc(Oc2nc3cc(-c4ccc5c(ccn5C)c4)c(Cl)cc3[nH]2)cc1C(=O)O` [EX229]?
Answer: rescue of chondrocyte viability following AMD (impacted chondrocytes; impacted): rescues the AMD-induced decrease in chondrocyte viability; cell viability (live/dead staining) (impacted chondrocytes; [7]): improved cell viability in impacted chondrocytes in a dose-dependent manner; prevention of impact-induced chondrocyte death (impacted chondrocytes; impacted): neither of these activators completely prevented impact-induced chondrocyte death; solubility in aqueous solutions [6]: low solubility

Question: For `O=C(Nc1ccccc1-c1cn2c(CN3CCNCC3)csc2n1)c1cnc2ccccc2n1` [SRT1720], which “rescue of chondrocyte viability following AMD” value (impacted chondrocytes; impacted) is on record?
Answer: rescues chondrocyte viability following AMD

Question: And the “cell viability (live/dead staining)” value (impacted chondrocytes; [7])?
Answer: improved cell viability in impacted chondrocytes in a dose-dependent manner

Question: And the “prevention of impact-induced chondrocyte death” value (impacted chondrocytes; impacted)?
Answer: neither of these activators completely prevented impact-induced chondrocyte death

Question: And the “solubility in aqueous solutions” value [6]?
Answer: low solubility
